Consider six molecules from patent publication US7947726B2, “Non-steroidal ligands for the glucocorticoid receptor, and compositions thereof” (The Regents of the University of California, priority 2002, dated 2011).

The EC50 is the concentration needed to bring the measured effect to its halfway point.

In assay [1] the target is T1, GR (Homo sapiens, UniProt P04150).
T1 construct: expressed in transfected cells; host or cells: CV-1 cells, transient transfection (plasmid a gift of Keith Yamamoto, UCSF)
T1 sequence (P04150 1-777): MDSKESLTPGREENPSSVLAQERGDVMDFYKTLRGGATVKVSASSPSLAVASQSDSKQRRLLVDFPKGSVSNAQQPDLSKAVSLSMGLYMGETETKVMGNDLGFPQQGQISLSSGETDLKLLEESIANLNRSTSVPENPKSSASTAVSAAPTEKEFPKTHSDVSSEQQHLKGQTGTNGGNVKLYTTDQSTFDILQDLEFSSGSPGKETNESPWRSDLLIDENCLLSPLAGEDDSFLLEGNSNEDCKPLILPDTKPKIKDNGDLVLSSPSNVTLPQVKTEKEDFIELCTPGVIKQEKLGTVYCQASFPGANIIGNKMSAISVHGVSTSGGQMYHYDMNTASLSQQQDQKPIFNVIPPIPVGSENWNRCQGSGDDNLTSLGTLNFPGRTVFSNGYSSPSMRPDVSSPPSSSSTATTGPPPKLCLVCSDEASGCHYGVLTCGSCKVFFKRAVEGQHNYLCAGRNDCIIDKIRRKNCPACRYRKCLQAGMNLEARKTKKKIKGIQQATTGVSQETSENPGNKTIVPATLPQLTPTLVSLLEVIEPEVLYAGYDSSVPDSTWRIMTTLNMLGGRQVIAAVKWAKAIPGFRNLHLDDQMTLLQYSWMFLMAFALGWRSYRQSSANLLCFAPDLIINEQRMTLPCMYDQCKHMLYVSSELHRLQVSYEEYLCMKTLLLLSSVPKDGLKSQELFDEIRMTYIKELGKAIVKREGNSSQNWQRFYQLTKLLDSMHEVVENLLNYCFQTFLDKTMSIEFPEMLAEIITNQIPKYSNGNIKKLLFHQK
The assay can be described thus: GRE (TAT3-Luc) activation luciferase assay in CV-1 cells transfected with GR. It counts as cell-based. The settings on record: Table 4; for EC50: read-out: GR pot (EC50). The procedure:
Cells were plated into tissue culture treated, 96 well flat bottom plates (25,000 cells/well), and incubated for 12 h at 37° C. Cells were then transfected using the Lipofectamine PLUS transfection reagent (Gibco BRL). DNA-lipid complexes of 5 ng GR, 50 ng TAT3-Luc, 7.5 ng β-galactosidase, 1 μL-well PLUS reagent and 0.67 μL-well lipofectamine in 50 μL/well serum free media were added to cells and incubated for 4 h at 37° C. Complexes were removed and hormones diluted in 5% charcoal-stripped FBS were added to the cells, which were then incubated for 24 hours at 37° C. Media was removed and the cells were washed with 100 μL Ca^+2, Mg^+2 free phosphate buffered saline (PBS). Lysis was achieved by adding 50 μL of Passive Lysis Buffer (Promega Corp, Madison, Wis.) and shaking the plate for 15 min. 15 μL of this lysate was then used to assay β-galactosidase activity (β-galactosidase enzyme assay system, Promega Corp., recommended procedures followed). The Luciferase Assay System (Promega Corp.) was used to assay luciferase activity. 100 μL of luciferase assay reagent was added rapidly to the plate and luminescence was measured for 10 ms/well on an Analyst AD Detection System (LJL Biosystems, Sunnyvale, Calif.).

Assay [2] concerns the target T2, glucocorticoid receptor (GR) (Homo sapiens, UniProt P04150).
T2 construct: purchased Panvera Corp, Madison, Wis
T2 sequence (P04150 1-777): T1 sequence (P04150 1-777)
The assay can be described thus: Glucocorticoid Receptor Competitor Assay Kit (Panvera) ligand binding. The settings on record: Table 3; relative binding affinity, dexamethasone = 100. An excerpt: The Glucocorticoid Receptor Competitor Assay Kit (Panvera Corp, Madison, Wis.) was used for ligand binding studies. The recommended room temperature protocol was followed for all assayed ligands.

Assay [3] deals with T3, MR (Homo sapiens, UniProt P08235).
T3 sequence (P08235 1-984): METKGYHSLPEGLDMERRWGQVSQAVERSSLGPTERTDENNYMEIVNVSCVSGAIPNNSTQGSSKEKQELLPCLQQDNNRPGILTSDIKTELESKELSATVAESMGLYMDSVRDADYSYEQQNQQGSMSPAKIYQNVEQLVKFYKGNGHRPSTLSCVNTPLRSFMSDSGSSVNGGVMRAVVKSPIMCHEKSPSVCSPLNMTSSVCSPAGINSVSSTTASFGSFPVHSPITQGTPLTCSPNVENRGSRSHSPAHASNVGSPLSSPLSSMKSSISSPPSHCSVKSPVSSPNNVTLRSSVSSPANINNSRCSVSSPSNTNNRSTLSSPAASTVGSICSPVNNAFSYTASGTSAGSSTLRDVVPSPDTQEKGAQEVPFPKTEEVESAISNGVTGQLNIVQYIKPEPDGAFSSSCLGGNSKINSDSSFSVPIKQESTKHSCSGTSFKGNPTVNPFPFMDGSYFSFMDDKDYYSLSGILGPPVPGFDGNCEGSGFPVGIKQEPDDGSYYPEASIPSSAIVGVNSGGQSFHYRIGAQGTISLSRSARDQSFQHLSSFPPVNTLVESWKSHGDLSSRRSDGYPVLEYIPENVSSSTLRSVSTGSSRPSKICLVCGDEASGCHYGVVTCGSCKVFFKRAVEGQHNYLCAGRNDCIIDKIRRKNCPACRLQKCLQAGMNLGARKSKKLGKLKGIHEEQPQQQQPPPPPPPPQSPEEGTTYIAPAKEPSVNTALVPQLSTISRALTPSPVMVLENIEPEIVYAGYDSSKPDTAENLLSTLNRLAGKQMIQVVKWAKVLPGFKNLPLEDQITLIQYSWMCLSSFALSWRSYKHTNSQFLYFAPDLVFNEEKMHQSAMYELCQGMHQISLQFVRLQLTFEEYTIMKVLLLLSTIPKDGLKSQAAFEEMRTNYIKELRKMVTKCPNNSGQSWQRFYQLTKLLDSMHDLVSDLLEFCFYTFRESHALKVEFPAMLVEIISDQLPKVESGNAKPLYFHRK
The assay is described as follows: MR activation (max fold activation). Format: cell-based. The settings on record: Table 4.

The target in assay [4] is T4, GR (Rattus norvegicus, UniProt P06536).
T4 construct: expressed in transfected cells; gift of Keith Yamamoto
T4 sequence (P06536 1-795): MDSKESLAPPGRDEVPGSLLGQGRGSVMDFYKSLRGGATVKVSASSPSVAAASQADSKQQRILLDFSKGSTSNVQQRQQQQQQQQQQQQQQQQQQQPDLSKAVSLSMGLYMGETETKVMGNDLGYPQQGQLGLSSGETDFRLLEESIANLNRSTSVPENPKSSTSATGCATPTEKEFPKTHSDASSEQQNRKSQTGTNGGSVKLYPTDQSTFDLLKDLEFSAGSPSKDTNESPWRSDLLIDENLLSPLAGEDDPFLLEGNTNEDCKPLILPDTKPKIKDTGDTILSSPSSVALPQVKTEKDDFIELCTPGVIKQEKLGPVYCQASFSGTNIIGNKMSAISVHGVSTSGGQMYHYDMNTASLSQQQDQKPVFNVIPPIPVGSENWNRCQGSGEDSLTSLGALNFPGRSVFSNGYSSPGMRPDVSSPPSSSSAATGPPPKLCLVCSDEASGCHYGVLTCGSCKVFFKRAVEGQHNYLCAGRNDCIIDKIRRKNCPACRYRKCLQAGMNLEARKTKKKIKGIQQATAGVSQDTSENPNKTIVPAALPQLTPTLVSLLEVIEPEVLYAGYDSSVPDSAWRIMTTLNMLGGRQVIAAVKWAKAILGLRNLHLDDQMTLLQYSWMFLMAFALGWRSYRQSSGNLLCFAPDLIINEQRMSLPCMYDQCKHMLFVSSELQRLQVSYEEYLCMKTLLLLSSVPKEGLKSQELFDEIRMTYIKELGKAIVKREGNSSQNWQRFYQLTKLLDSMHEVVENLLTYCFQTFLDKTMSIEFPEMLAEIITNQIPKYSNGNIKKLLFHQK
The assay is described as follows: AP-1 repression luciferase assay in U2OS cells stably transfected with rat GR. Format: cell-based. The settings on record: Table 5, TPA-stimulated U2OS cells; for EC50: read-out: Repression AP-1 pot (EC50); for Emax: 12 h, read-out: Repression AP-1 % max repression. The procedure: For API repression assays, U2OS cells stably transfected with rat GR were grown in similar media as for CV-1 cells with the exception of the FBS concentration, which was 10% and the only antibiotic was […]. Cells were plated and transfected in a similar fashion, except for plasmids, which in this case were 50 ng/well AP1-Luc and 10 ng/well β-galactosidase. Post-transfection, cells were incubated with either 50 ng/mL TPA (Phorbol 12-myristate 13-acetate), or 50 ng/mL TPA and various hormone dilutions in 10% charcoal treated FBS media. The cells were incubated for 12 h, and the lysis, β-galactosidase assay, and luciferase assay were performed as previously described.

For assay [5], the system named is Coll A. The assay is described as follows: Coll A repression. Format: cell-based. The settings on record: for Emax: read-out: Repression Coll A % max repression; for EC50: read-out: Repression Coll A pot (EC50).
The subject of assay [6] is NF-κB. The assay is described as follows: NF-κB repression luciferase assay in A549 cells. Format: cell-based, human. The settings on record: Table 5, TNF-α-stimulated A549 cells; for EC50: Homo sapiens, read-out: Repression NF-KB pot (EC50). From the text:
Plasmids for GR (human, pSG5 backbone), AP1-Luc (synthetic AP1 response element upstream of a firefly luciferase gene), TAT3-Luc (three copies of the tyrosine aminotransferase glucocorticoid response element upstream of a firefly luciferase gene), β-galactosidase (used as a transfection control), as well as two stable transfected cells lines: an A549 (human, lung carcinoma) cell line stably transfected with a κB response element upstream of a firefly luciferase gene, (R. M. Nissen et al., Genes Dev., 14(18):2314-29, (2000)) and a U2OS (human, osteosarcoma) stably transfected with rat GR (I. Rogatsky, et al., Mol. Cell. Biol., 1997, 17, 3181-3193) were a gift of Professor Keith Yamamoto (Department of Biochemistry, University of California, San Francisco).
For NF-κB repression assays, A549 cells stably transfected with a luciferase reporter were grown under the same conditions as CV-1 cells. 50,000 cells/well were plated into 96 well plates and incubated for 12 h at 37° C. Either TNF-α alone or mixed with various hormone dilutions in media were then added to the cells, which were then incubated for 8 hours. Procedures for lysis and luciferase assay were performed as previously described. Protein content was used as a control in this case and the recommended procedures using the BCA Protein Assay Kit (Roche) were followed.

Each structure is given as a SMILES string. Where two headings read alike, the source gives them in different places.

Consider `CC12Cc3cnn(-c4ccc(F)cc4)c3C=C1CCCC2C(O)c1cccc(O)c1` (centres unmarked) [Compound 229, 3-{[1-(4-Fluoro-phenyl)-4a-methyl-4,4a,5,6,7,8-hexahydro-1H-benzo[f]indazol-5-yl]-hydroxy-methyl}-phenol], for which the “GRE activation max fold activation” value in assay [1] came to 55 ± 2. Moreover, the EC50 in assay [1] turned out to be 110 ± 7 nM; in assay [4] it was 16.6 nM. In addition, the “GR binding RBA (dex = 100)” value in assay [2] is on record as 52. The “MR max fold activation” value in assay [3] was found to be 3.1 ± 1.0. In addition, in assay [4] (U2OS), the Emax stood at 77%.

As for `CC12Cc3cnn(-c4ccc(F)cc4)c3C=C1CCCC2C(O)c1ccc(O)cc1` (centres unmarked) [Compound 231, 4-{[1-(4-Fluoro-phenyl)-4a-methyl-4,4a,5,6,7,8-hexahydro-1H-benzo[f]indazol-5-yl]-hydroxy-methyl}-phenol], the “GRE activation max fold activation” value in assay [1] was 69 ± 25. The 50% effective concentration (EC50) was determined as 330 ± 92 nM in assay [1], 12.8 nM in assay [4] and 28 nM in assay [5] (Table 5). For the same molecule, the “GR binding RBA (dex = 100)” value in assay [2] was found to be 36. Further, the “MR max fold activation” value in assay [3] is 2.9 ± 0.5. For the same molecule, the Emax in assay [4] (U2OS) was 68%; in assay [5] (Table 5), 70%.

Regarding `C[C@]12CCC(=O)C=C1CC[C@@H]1[C@@H]2[C@@H](O)C[C@]2(C=O)[C@@H](C(=O)CO)CC[C@@H]12` [Aldosterone, reference compound], in assay [1], the “GRE activation max fold activation” value came out at 41 and the 50% effective concentration (EC50) turned out to be 765 nM. In addition, the “MR max fold activation” value in assay [3] is 6.1 ± 1.5.

As for `C[C@@H]1C[C@H]2[C@@H]3CCC4=CC(=O)C=C[C@]4(C)[C@@]3(F)[C@@H](O)C[C@]2(C)[C@@]1(O)C(=O)CO` [Dexamethasone, dexamethasone, reference compound], the concentration giving a half-maximal response (EC50) was 1.5 nM in assay [6] and 0.36 nM in assay [5] (Table 2). The “Repression NF-KB % max repression” value in assay [6] came out at 87%. In addition, the Emax in assay [4] came to 89%; in assay [5] (Table 2), 84%. For the same molecule, the “Repression Coll A % max repression” value in assay [5] (Table 5) amounted to 84%.

`C[C@]12CCC(=O)C=C1CC[C@@H]1[C@@H]2[C@@H](O)C[C@@]2(C)[C@H]1CC[C@]2(O)C(=O)CO` [Cortisol, cortisol]: the figures for the EC50 in assay [6] and in assay [5] (Table 5) were 8.4 nM and 2.1 nM, respectively. The “Repression NF-KB % max repression” value in assay [6] came out at 83%.

As to `CC12Cc3cnn(-c4ccc(F)cc4)c3C=C1CCCC2C(O)c1csc2ccccc12` (centres unmarked) [Compound 221, 3a,7a-(Dihydro-benzo[b]thiophen-3-yl)-[1-(4-fluoro-phenyl)-4a-methyl-4,4a,5,6,7,8-hexahydro-1H-benzo[f]indazol-5-yl]-methanol], in assay [1], the “GRE activation max fold activation” value was found to be 21. In addition, the 50% effective concentration (EC50) came out at 313 nM in assay [1] and 5.3 nM in assay [4]. In addition, in assay [2], the “GR binding RBA (dex = 100)” value was 93. The “MR max fold activation” value in assay [3] turned out to be 2.0 ± 0.7. Also, the Emax in assay [4] (U2OS) stood at 74%.
